From ChEMBL document CHEMBL2073836, “Interactions of nonsteroidal anti-inflammatory drugs with rat renal organic anion transporter, OAT-K1” (J Pharmacol Exp Ther, 1997)

Key:
Format in all cases: functional, cell-based
[1] = target: T1, Solute carrier organic anion transporter family member 1A3 (Rattus norvegicus, UniProt P70502); assay: TP_TRANSPORTER: inhibition of MTX uptake (MTX: 0.1 uM, Flufenamate: 1000 uM) in OAT-K1-expressing LLC-PK1 cells; details: pig, llc-pk1, 1000 µM
T1 sequence (P70502 whole entry): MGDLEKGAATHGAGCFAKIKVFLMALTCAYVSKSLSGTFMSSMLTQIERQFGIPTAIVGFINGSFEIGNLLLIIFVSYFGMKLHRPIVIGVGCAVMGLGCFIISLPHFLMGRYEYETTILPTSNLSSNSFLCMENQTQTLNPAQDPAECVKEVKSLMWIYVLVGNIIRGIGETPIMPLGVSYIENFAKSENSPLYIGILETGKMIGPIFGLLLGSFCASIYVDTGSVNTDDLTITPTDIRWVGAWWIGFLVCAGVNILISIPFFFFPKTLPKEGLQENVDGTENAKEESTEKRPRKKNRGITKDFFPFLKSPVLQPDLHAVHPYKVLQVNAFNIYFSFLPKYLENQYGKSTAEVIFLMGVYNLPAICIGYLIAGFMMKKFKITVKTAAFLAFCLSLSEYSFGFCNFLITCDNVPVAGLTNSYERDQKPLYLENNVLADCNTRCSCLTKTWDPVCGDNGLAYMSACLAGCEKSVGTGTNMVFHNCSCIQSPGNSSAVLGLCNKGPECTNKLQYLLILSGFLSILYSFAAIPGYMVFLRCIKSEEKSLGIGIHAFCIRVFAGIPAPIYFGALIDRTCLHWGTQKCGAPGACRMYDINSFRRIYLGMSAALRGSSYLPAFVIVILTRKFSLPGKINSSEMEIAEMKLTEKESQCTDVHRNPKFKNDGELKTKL

[2] = target: T1, Solute carrier organic anion transporter family member 1A3; assay: TP_TRANSPORTER: inhibition of MTX uptake (MTX: 0.1 uM, Ibuprofen: 1000 uM) in OAT-K1-expressing LLC-PK1 cells; details: pig, llc-pk1, 1000 µM
[3] = target: T1, Solute carrier organic anion transporter family member 1A3; assay: TP_TRANSPORTER: inhibition of MTX uptake in OAT-K1-expressing LLC-PK1 cells
[4] = target: T1, Solute carrier organic anion transporter family member 1A3; assay: TP_TRANSPORTER: inhibition of MTX uptake (MTX: 0.1 uM, Phenylbutazone: 1000 uM) in OAT-K1-expressing LLC-PK1 cells; details: pig, llc-pk1, 1000 µM

**Q.** How did the Activity [1] turn out when O=C(O)c1ccccc1Nc1cccc(C(F)(F)F)c1 [FLUFENAMIC ACID] was run?
**A.** inhibitor [(at a rough estimate) 55 % of control]

**Q.** Which Activity [2] does the source give for CC(C)Cc1ccc(C(C)C(=O)O)cc1 (stereo not given) [IBUPROFEN] here?
**A.** inhibitor [(at a rough estimate) 65 % of control]

**Q.** For COc1ccc2c(c1)c(CC(=O)O)c(C)n2C(=O)c1ccc(Cl)cc1 [INDOMETHACIN], which Ki [3] is on record?
**A.** 1000 µM

**Q.** How did the Ki [3] turn out when CC(C(=O)O)c1cccc(C(=O)c2ccccc2)c1 (stereo not given) [KETOPROFEN] was run?
**A.** 1900 µM

**Q.** How did the Activity [4] turn out when CCCCC1C(=O)N(c2ccccc2)N(c2ccccc2)C1=O [PHENYLBUTAZONE] was run?
**A.** inhibitor [(at a rough estimate) 70 % of control]
